Assay [1] addresses T1, Myosin light chain kinase, smooth muscle (Homo sapiens, UniProt Q15746). The experiment in a line: Selectivity interaction (LanthaScreen Eu Kinase Binding Assay) EUB0001632a MYLK. The note with it: at 10 µM. For orientation: Time-resolved FRET reads energy transfer from a long-lived donor to a nearby acceptor.
Assay [2] addresses T2, Serine/threonine-protein kinase Nek3 (Homo sapiens) (UniProt P51956).
T2 sequence (whole entry): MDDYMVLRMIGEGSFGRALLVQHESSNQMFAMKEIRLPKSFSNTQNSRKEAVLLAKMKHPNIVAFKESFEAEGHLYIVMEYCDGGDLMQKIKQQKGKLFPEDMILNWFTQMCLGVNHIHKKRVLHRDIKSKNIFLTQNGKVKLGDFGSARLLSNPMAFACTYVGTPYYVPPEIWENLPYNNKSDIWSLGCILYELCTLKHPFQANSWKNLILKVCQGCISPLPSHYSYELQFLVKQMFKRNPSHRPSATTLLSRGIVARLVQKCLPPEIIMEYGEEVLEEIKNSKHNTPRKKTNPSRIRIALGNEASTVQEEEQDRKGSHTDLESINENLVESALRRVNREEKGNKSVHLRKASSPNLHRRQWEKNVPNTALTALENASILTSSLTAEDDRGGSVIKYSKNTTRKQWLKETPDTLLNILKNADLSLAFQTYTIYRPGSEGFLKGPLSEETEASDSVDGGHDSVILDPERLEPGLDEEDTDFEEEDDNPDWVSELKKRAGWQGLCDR
The experiment in a line: Selectivity interaction (Ambit KINOMEscan and KiNATiv profiling in Jurkat cells) EUB0000090b NEK3. Format: cell-based. The note with it: at 1 µM.

In assay [3] the target is Platelet-derived growth factor receptor beta (Homo sapiens, UniProt P09619). The assay can be described thus: Selectivity interaction (KinomeScan (DiscoverX)) EUB0000607a PDGFRB. The note with it: at 10 µM.
Assay [4] deals with Receptor tyrosine-protein kinase erbB-4 (Homo sapiens, UniProt Q15303). The assay can be described thus: Selectivity interaction (SelectScreen profiling (Invitrogen)) EUB0000607a ERBB4. The note with it: at 2 µM.
Assay [5] deals with Serine/threonine-protein kinase B-raf (Homo sapiens), P15056 [V600E]. The experiment in a line: (§1) Selectivity interaction (KinomeScan (DiscoverX)) EUB0000607a BRAF. To be noted: at 10 µM.
Assay [6] addresses Serine/threonine-protein kinase B-raf (Homo sapiens) (UniProt P15056). The assay is described as §1. The note with it: at 10 µM.
The target in assay [7] is T3, RAC-alpha serine/threonine-protein kinase (Homo sapiens, UniProt P31749). The note with it: at 10 µM.
In assay [8] the target is Platelet-derived growth factor receptor alpha (Homo sapiens, UniProt P16234). The experiment in a line: Selectivity interaction (KinomeScan (DiscoverX)) EUB0000666a PDGFRA. To be noted: at 10 µM.
For assay [9], the target named is Vascular endothelial growth factor receptor 1 (Homo sapiens) (UniProt P17948). The assay can be described thus: Selectivity interaction (KinomeScan (DiscoverX)) EUB0000229b FLT1. To be noted: at 10 µM.
Assay [10] deals with T4, Protein arginine N-methyltransferase 7 (Homo sapiens) (UniProt Q9NVM4).
T4 sequence (whole entry): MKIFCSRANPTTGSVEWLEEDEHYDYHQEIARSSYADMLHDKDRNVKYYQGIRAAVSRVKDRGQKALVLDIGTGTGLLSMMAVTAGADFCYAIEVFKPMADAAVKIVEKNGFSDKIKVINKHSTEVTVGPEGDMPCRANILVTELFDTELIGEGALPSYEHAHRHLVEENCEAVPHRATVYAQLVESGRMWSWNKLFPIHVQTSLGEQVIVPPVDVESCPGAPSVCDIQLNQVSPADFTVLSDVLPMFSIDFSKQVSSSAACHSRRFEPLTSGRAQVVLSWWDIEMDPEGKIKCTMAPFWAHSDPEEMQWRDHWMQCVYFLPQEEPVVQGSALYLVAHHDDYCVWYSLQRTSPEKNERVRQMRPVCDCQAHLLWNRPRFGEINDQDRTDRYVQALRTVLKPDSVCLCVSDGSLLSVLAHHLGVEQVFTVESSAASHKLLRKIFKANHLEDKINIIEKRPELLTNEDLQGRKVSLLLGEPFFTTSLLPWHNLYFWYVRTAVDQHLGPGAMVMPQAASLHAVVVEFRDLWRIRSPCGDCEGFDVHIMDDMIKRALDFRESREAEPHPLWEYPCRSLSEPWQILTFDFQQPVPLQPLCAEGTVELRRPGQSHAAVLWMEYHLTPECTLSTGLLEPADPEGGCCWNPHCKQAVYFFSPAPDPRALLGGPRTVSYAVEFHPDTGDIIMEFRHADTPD
The experiment in a line: Selectivity interaction (Methyltransferase screen (Scintillation proximity assays)) EUB0000255b PRMT7. (In general: Scintillation proximity formats need no separation of bound from free tracer.)

Assay [11] concerns the target T3, RAC-alpha serine/threonine-protein kinase. The experiment in a line: Selectivity interaction (ActivX KiNativ screen (ex vivo kinase selectivity in human PBMCs)) EUB0001619a AKT1. Format: cell-based. To be noted: PBMC, at 1 µM.
Assay [12] has as its target Tyrosine-protein kinase Fer (Homo sapiens) (UniProt P16591). The assay can be described thus: Selectivity interaction (ActivX KiNativ screen (kinase selectivity in THP-1 cell lysates)) EUB0000639a FER. The format is subcellular. The note with it: lysate, at 0.04 µM.
The target in assay [13] is Serine/threonine-protein kinase MARK2 (Homo sapiens) (UniProt Q7KZI7). The assay can be described thus: Selectivity interaction (ActivX KiNativ screen (kinase selectivity in THP-1 cell lysates)) EUB0000639a MARK2. The format is subcellular. The note with it: lysate, at 5 µM.
Assay [14] deals with Vascular endothelial growth factor receptor 1 (Homo sapiens) (UniProt P17948). The experiment in a line: Selectivity interaction (KinomeScan (DiscoverX)) EUB0001049a FLT1. The note with it: at 1 µM.
In assay [15] the target is Cyclin-dependent kinase 5 (Homo sapiens, UniProt Q00535). The experiment in a line: Selectivity interaction (KinomeScan (DiscoverX)) EUB0001049a CDK5. To be noted: at 1 µM.
The target in assay [16] is T1, Myosin light chain kinase, smooth muscle. The experiment in a line: Selectivity interaction (KinomeScan (DiscoverX)) EUB0000595a MYLK. The note with it: at 10 µM.

SMILES strings stand for the structures.

T3 sequence (P31749 whole entry): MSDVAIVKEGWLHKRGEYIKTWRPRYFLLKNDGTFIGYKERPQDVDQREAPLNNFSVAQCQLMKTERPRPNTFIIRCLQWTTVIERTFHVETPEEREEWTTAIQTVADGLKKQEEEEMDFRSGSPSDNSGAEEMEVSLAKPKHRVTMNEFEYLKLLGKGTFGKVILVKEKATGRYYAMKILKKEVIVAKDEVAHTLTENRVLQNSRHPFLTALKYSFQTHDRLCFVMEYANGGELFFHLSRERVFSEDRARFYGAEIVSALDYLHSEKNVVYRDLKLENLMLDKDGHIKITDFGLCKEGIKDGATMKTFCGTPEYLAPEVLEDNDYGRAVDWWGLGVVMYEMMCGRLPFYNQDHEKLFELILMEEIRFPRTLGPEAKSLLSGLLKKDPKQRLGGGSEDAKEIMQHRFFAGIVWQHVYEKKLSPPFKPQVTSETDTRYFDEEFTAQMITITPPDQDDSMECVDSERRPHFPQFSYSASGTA
T1 sequence (Q15746 whole entry): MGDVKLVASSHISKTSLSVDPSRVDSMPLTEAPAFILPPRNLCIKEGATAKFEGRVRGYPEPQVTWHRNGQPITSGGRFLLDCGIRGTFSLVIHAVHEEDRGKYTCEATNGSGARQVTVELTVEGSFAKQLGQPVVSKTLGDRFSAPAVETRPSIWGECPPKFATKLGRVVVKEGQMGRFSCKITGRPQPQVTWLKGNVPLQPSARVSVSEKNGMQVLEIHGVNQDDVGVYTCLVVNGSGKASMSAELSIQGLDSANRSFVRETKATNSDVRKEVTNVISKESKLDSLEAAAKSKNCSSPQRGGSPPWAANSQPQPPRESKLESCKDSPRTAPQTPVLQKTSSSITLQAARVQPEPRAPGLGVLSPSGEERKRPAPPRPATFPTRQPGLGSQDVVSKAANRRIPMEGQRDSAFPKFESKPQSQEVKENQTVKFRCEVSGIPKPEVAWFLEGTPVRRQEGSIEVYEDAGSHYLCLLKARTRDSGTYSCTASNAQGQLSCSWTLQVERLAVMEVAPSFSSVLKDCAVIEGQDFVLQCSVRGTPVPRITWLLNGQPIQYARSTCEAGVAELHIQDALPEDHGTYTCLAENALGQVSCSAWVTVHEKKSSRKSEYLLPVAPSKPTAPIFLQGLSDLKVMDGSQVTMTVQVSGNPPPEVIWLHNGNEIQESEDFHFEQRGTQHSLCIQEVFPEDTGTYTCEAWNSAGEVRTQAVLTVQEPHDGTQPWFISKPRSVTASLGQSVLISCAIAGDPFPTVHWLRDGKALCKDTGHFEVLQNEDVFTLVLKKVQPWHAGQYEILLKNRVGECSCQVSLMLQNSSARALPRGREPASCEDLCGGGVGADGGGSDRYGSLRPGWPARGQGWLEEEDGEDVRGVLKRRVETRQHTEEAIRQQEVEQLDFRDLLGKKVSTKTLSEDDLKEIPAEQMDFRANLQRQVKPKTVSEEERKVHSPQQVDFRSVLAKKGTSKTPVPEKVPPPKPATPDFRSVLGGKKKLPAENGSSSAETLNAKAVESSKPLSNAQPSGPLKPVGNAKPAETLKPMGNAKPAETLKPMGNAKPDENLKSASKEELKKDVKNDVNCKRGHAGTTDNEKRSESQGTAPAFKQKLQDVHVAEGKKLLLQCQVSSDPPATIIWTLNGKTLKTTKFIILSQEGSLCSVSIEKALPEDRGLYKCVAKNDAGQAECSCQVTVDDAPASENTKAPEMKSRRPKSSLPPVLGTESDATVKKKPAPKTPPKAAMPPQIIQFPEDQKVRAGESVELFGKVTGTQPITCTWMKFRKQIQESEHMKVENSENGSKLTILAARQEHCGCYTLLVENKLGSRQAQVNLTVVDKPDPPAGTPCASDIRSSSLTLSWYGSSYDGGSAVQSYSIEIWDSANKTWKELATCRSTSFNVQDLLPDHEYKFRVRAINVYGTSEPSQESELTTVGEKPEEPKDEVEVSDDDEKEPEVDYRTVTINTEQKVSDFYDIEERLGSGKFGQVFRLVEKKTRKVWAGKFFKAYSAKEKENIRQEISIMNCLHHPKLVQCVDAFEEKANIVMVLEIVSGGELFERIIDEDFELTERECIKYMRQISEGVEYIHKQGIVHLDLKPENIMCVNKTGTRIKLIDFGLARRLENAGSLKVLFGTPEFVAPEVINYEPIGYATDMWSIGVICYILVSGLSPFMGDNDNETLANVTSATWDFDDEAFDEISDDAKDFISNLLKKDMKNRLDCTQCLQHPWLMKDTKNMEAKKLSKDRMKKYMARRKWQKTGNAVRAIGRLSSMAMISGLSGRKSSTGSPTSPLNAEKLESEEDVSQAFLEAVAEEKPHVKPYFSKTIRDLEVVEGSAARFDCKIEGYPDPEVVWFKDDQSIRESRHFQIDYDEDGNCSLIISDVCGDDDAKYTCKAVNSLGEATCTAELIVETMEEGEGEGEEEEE
Sequence of Vascular endothelial growth factor receptor 1 (Homo sapiens) (P17948 whole entry): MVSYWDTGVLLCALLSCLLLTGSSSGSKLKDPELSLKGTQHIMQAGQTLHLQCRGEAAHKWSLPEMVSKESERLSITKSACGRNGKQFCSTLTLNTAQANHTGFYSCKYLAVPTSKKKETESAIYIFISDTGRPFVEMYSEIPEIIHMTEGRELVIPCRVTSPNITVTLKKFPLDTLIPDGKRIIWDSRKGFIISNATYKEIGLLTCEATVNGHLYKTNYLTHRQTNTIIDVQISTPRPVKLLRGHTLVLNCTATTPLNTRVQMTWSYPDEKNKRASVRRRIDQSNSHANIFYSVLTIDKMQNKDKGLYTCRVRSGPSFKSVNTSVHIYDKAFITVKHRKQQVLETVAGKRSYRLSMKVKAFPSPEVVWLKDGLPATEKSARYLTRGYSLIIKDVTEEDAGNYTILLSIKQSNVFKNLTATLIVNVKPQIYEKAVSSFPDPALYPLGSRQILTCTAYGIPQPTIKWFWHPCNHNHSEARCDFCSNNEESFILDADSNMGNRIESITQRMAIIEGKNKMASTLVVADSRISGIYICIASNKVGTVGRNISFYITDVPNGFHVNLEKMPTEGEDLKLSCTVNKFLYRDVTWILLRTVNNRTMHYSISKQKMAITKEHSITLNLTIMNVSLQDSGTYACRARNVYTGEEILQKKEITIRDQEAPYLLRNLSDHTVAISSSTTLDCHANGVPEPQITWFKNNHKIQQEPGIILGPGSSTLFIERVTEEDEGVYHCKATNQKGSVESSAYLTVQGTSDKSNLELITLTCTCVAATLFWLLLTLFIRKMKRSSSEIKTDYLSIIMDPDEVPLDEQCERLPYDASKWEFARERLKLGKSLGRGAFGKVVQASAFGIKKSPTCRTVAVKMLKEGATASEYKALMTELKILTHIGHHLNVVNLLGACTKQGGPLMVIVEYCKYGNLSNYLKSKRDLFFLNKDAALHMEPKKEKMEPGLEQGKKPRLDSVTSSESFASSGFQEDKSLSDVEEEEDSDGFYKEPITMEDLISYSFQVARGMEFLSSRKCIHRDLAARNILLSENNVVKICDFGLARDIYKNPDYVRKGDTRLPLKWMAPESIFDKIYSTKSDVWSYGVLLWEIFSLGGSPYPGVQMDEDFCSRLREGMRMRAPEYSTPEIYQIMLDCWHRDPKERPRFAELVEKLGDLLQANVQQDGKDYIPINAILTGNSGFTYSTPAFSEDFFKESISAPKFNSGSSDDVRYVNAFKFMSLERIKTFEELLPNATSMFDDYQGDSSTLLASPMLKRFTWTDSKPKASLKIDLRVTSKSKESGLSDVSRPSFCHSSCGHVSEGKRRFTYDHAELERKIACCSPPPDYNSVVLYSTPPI
Sequence of Serine/threonine-protein kinase MARK2 (Homo sapiens) (Q7KZI7 whole entry): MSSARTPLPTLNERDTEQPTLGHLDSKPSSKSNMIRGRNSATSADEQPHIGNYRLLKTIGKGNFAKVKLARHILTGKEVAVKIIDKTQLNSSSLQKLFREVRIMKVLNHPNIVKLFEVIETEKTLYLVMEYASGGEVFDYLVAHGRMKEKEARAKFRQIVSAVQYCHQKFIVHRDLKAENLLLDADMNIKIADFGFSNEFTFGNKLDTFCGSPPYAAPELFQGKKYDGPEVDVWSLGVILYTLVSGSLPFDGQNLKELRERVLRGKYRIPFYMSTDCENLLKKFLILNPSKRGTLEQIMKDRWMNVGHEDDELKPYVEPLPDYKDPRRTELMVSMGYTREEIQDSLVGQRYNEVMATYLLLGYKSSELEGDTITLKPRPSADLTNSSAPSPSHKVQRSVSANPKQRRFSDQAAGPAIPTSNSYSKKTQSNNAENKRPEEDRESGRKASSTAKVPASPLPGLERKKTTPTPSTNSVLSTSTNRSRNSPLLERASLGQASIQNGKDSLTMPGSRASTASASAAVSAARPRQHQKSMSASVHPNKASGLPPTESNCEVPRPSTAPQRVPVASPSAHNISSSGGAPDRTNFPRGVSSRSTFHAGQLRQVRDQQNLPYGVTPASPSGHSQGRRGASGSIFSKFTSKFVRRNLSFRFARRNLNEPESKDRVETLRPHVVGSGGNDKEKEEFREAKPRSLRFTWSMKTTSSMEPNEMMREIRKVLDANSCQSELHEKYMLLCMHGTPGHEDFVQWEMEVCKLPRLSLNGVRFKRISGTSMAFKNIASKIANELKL
Sequence of Cyclin-dependent kinase 5 (Q00535 whole entry, looked up): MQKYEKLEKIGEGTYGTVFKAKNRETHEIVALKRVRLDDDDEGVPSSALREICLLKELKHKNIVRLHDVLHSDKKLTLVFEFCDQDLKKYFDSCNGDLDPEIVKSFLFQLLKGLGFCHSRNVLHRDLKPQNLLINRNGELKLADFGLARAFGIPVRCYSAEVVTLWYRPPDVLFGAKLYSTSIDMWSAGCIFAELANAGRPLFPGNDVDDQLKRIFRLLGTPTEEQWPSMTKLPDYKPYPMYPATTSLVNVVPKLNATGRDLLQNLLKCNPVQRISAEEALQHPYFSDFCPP

For the molecule `Cn1cc(-n2cnc3c(NCc4nc5cc(Cl)c(Cl)cc5[nH]4)nc(N4CCOCC4)nc32)cn1`, the % of inhibition in assay [1] was -17.4%. Molecule `CN(C)C/C=C/C(=O)Nc1ccc(C(=O)N2CCCC(Nc3ncc(Cl)c(-c4c[nH]c5ccccc45)n3)C2)cc1` (configuration not stated) returned a % of control in assay [2] of 88%. Regarding `CNC(=O)Nc1ccc(-c2nc(N3CC4CCC(C3)O4)c3cnn(C4CCC5(CC4)OCCO5)c3n2)cc1`, the values for the % of control in [3], in assay [5] and in assay [6] were 89%, 100% and 100%, respectively. Further, in assay [4], the % of inhibition came to 3%. With `Cc1cc([C@@H](C)Nc2ccccc2C(=O)O)c2nc(N3CCOCC3)cc(=O)n2c1` [AZD-6482], the % of control in [7] worked out at 100%. In [8], `O=C(NOC[C@H](O)CO)c1ccc(F)c(F)c1Nc1ccc(I)cc1F` gave a % of control of 96%. Turning to `COc1cc(N(C)c2ccnc3ccc(C(F)(F)F)cc23)cc(OC)c1OC`, in assay [9], the % binding stood at 100%. As for `COCCN1CCC(c2cc(CN(C)C(=O)c3cccc(Oc4ccccc4)c3)ccn2)CC1`, the % activity was above 95% in assay [10] (at 1 µM) and above 90% in [10] (at 10 µM). For the molecule `N#Cc1cccc(-c2c[nH]c3ncnc(N4CCOCC4)c23)c1`, the % of inhibition in assay [11] was -6%. For the molecule `CC[C@@H]1[C@H](F)C(=O)N[C@@H]1COc1nccc2cc(C(N)=O)c(OC)cc12` [ZIMLOVISERTIB], the results for the % of inhibition in assay [12] and in [13] were -11.5% and 48.9%, respectively.

Regarding `COc1cc(Nc2nc(C)cc(-c3cnn4nc(OC)ccc34)n2)cc(C(F)(F)F)c1`, the % of control in [14] is 82%; in [15], 89%. For `COCC(=O)NC/C=C/c1ccc2ncnc(Nc3ccc(Oc4ccc(C)nc4)c(C)c3)c2c1` [CP-724714], the % of control in assay [16] came to 100%.

Source of the values: ChEMBL document CHEMBL5465560, “Selectivity Literature for EUbOPEN Chemogenomic Library” (2024).
